System: HeLa
Experiment: Evaluated for cytotoxicity against HeLa S3 cells
Type: functional, cell-based
Conditions: Homo sapiens

Structure (SMILES)	IC50
CCCc1c2c(O)c(OC)ccc2c2ccc3cc4c(cc3c2[n+]1C)OCO4	2.9 µM
COc1ccc2c(c1O)c(C1CC1)[n+](C)c1c3cc4c(cc3ccc21)OCO4	6.5 µM
COc1ccc(-c2c3c(O)c(OC)ccc3c3ccc4cc5c(cc4c3[n+]2C)OCO5)cc1	16 µM
CCc1c2c(O)c(OC)ccc2c2ccc3cc4c(cc3c2[n+]1C)OCO4	11 µM
C[n+]1cc2c(O)c(OCCO)ccc2c2ccc3cc4c(cc3c21)OCO4	0.52 µM
COc1ccc2c(c1O)c(C)[n+](C)c1c3cc4c(cc3ccc21)OCO4	2.9 µM
COC(=O)COc1ccc2c(c[n+](C)c3c4cc5c(cc4ccc23)OCO5)c1O	15 µM
C[n+]1cc2c(O)c(OCC(=O)O)ccc2c2ccc3cc4c(cc3c21)OCO4	> 24 µM
C[n+]1cc2c(O)c(OCc3ccccc3)ccc2c2ccc3cc4c(cc3c21)OCO4	17 µM
CC(C)Oc1ccc2c(c[n+](C)c3c4cc5c(cc4ccc23)OCO5)c1O	2.4 µM
COc1ccc2c(c[n+](CC(=O)O)c3c4cc5c(cc4ccc23)OCO5)c1O	> 24 µM
CCC[n+]1cc2c(O)c(OC)ccc2c2ccc3cc4c(cc3c21)OCO4	0.4 µM
CC[n+]1cc2c(O)c(OC)ccc2c2ccc3cc4c(cc3c21)OCO4	0.4 µM
COc1ccc2c(c1O)c(-c1ccccc1)[n+](C)c1c3cc4c(cc3ccc21)OCO4	17 µM
C=CCOc1ccc2c(c[n+](C)c3c4cc5c(cc4ccc23)OCO5)c1O	0.71 µM
COc1ccc2c(c[n+](C)c3c4cc5c(cc4ccc23)OCO5)c1O [FAGARIDINE]	0.32 µM
C=CC[n+]1cc2c(O)c(OC)ccc2c2ccc3cc4c(cc3c21)OCO4	0.76 µM
C[n+]1cc2c(O)c(OCC(N)=O)ccc2c2ccc3cc4c(cc3c21)OCO4	1.9 µM
CC(=O)OCCOc1ccc2c(c[n+](C)c3c4cc5c(cc4ccc23)OCO5)c1O	0.48 µM
